Source: PubChem BioAssay AID330 (DTP/NCI, 2004)
Values joined by “and” are separate entries in the source; they are usually repeats but may differ in a detail not shown here. Equal entries are not always repeated. Inconclusive results and toxic doses are left out. Peptide text beside a SMILES is read from it. * marks the point of attachment. Boc = CC(C)(C)OC(=O)*

Tested on: P388 leukemia ip, CD2F1 mice, survival T/C
Test: NCI In Vivo Anticancer Drug Screen. Data for tumor model P388 Leukemia (intraperitoneal) in CD2F1 (CDF1) mice
Settings: endpoint: median survival time, higher = longer survival
Summary of the method: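 Mice carrying the transplanted tumor received test compound or vehicle. Survival was recorded in each group, and the value is the treated-group measurement divided by that of the vehicle-treated control group.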

[1] = dose: 100.0 mg/kg/injection, schedule: Q04DX002 (ip), vehicle: Klucel (hydroxypropylcellulose) (HPC)
[2] = dose: 200.0 mg/kg/injection, schedule: Q04DX002 (ip), vehicle: Klucel (hydroxypropylcellulose) (HPC)
[3] = dose: 25.0 mg/kg/injection, schedule: Q01DX009 (ip), vehicle: saline with Tween-80
[4] = dose: 50.0 mg/kg/injection, schedule: Q01DX009 (ip), vehicle: saline with Tween-80
[5] = dose: 100.0 mg/kg/injection, schedule: Q01DX009 (ip), vehicle: saline with Tween-80
[6] = dose: 200.0 mg/kg/injection, schedule: Q01DX009 (ip), vehicle: saline with Tween-80
[7] = dose: 50.0 mg/kg/injection, schedule: Q01DX009 (ip), vehicle: saline
[8] = dose: 100.0 mg/kg/injection, schedule: Q01DX009 (ip), vehicle: saline
[9] = dose: 25.0 mg/kg/injection, schedule: Q01DX005 (ip), vehicle: Klucel (hydroxypropylcellulose) (HPC)
[10] = dose: 50.0 mg/kg/injection, schedule: Q01DX005 (ip), vehicle: Klucel (hydroxypropylcellulose) (HPC)
[11] = dose: 100.0 mg/kg/injection, schedule: Q01DX005 (ip), vehicle: Klucel (hydroxypropylcellulose) (HPC)
[12] = dose: 200.0 mg/kg/injection, schedule: Q01DX005 (ip), vehicle: Klucel (hydroxypropylcellulose) (HPC)
[13] = dose: 60.0 mg/kg/injection, schedule: Q01DX005 (ip), vehicle: saline with Tween-80
[14] = dose: 120.0 mg/kg/injection, schedule: Q01DX005 (ip), vehicle: saline with Tween-80
[15] = dose: 240.0 mg/kg/injection, schedule: Q01DX005 (ip), vehicle: saline with Tween-80
[16] = dose: 100.0 mg/kg/injection, schedule: Q04DX002 (ip), vehicle: saline with Tween-80
[17] = dose: 200.0 mg/kg/injection, schedule: Q04DX002 (ip), vehicle: saline with Tween-80
[18] = dose: 12.5 mg/kg/injection, schedule: Q01DX009 (ip), vehicle: Klucel (hydroxypropylcellulose) (HPC)
[19] = dose: 25.0 mg/kg/injection, schedule: Q01DX009 (ip), vehicle: Klucel (hydroxypropylcellulose) (HPC)
[20] = dose: 50.0 mg/kg/injection, schedule: Q01DX009 (ip), vehicle: Klucel (hydroxypropylcellulose) (HPC)
[21] = dose: 50.0 mg/kg/injection, schedule: Q04DX003 (ip), vehicle: saline

In the case of Cc1ccc(-c2csc3nc(C)c(CN4CCOCC4)c(=O)n23)cc1, the T/C (dose: 25.0 mg/kg/injection, schedule: Q04DX002 (ip), vehicle: Klucel (hydroxypropylcellulose) (HPC)) is reported as 99 % of control, the T/C (dose: 50.0 mg/kg/injection, schedule: Q04DX002 (ip), vehicle: Klucel (hydroxypropylcellulose) (HPC)) is reported as 106 % of control and the T/C [1] is reported as 101 % of control. The T/C [2] was 102 % of control.
NNC(=O)c1ccc(Cl)cc1 was tested, and the T/C [3] was 91 % of control, the T/C [4] was 96 % of control and the T/C [5] was 96 % of control. For the same molecule, the T/C [6] was 86 % of control.
With CN(C)C1=NC(N(C)C)=C2C=C(C(C)(C)C)C=C12 the T/C (dose: 60.0 mg/kg/injection, schedule: Q01DX005 (ip), vehicle: Klucel (hydroxypropylcellulose) (HPC)) was 101 % of control and the T/C (dose: 120.0 mg/kg/injection, schedule: Q01DX005 (ip), vehicle: Klucel (hydroxypropylcellulose) (HPC)) was 101 % of control.
With CSc1ccc(N2C(N)=NC(N)=NC2(C)C)cc1 the T/C (dose: 6.25 mg/kg/injection, schedule: Q01DX005 (ip), vehicle: saline with Tween-80) was 100 % of control, the T/C (dose: 12.5 mg/kg/injection, schedule: Q01DX005 (ip), vehicle: saline with Tween-80) was 102 % of control and the T/C (dose: 25.0 mg/kg/injection, schedule: Q01DX005 (ip), vehicle: saline with Tween-80) was 100 % of control.
For CCCC1CN2CCc3cc(OC)c(OC)cc3C2CC1=O (stereo not drawn), the T/C [7] was 100 % of control and 104 % of control, the T/C [8] was 112 % of control and 115 % of control and the T/C (dose: 200.0 mg/kg/injection, schedule: Q01DX009 (ip), vehicle: saline) was 120 % of control.
O=C(O)c1cccc2c1C(=O)N(c1ccc3c(c1)Cc1ccccc1-3)C2=O was tested, and the T/C [9] was 97 % of control, the T/C [10] was 98 % of control and the T/C [11] was 95 % of control. For the same molecule, the T/C [12] was 96 % of control.
For COC(=O)c1c(-c2ccccc2)c(-c2ccccc2)[nH]c(=O)c1C#N, the T/C [13] was 108 % of control, the T/C [14] was 100 % of control and the T/C [15] was 91 % of control.
In the case of CC(C)C1=CCC2C(=C1)CCC1C(C)(C(N)=O)CCCC21C (stereo not drawn), the T/C (dose: 100.0 mg/kg/injection, schedule: Q01DX001 (ip), vehicle: saline with Tween-80) is reported as 100 % of control, the T/C (dose: 200.0 mg/kg/injection, schedule: Q01DX001 (ip), vehicle: saline with Tween-80) is reported as 100 % of control and the T/C (dose: 400.0 mg/kg/injection, schedule: Q01DX001 (ip), vehicle: saline with Tween-80) is reported as 100 % of control.
O=C(NC1c2ccccc2CCc2ccccc21)C(F)(F)F was tested, and the T/C (dose: 12.5 mg/kg/injection, schedule: Q01DX009 (ip), vehicle: saline with Tween-80) was 86 % of control, the T/C [3] was 117 % of control and the T/C [4] was 90 % of control. The T/C [5] was 86 % of control and the T/C [6] was 94 % of control.
With Cc1ccc(SC2=C(Sc3ccc(C)cc3)C(=O)c3ccccc3C2=O)cc1 the T/C [3] was 102 % of control and 88 % of control, the T/C [4] was 116 % of control and 96 % of control and the T/C [5] was 99 % of control and 123 % of control.
With O=C(O)C1=C(/C=C/Cl)CC1 the T/C [4] was 102 % of control, the T/C [5] was 96 % of control and the T/C [6] was 99 % of control.
CCO/C=C\Br was tested, and the T/C [13] was 105 % of control, the T/C [14] was 99 % of control and the T/C [15] was 100 % of control.
Cc1ccc(C(=O)NCCN2CCN3Cc4[nH]c5ccccc5c4CC3C2)cc1 (stereo not drawn) was tested, and the T/C [16] was 92 % of control and the T/C [17] was 105 % of control.
In the case of Cc1nnc(-n2cccc2)s1, the T/C [18] is reported as 105 % of control, the T/C [19] is reported as 104 % of control and 95 % of control and the T/C [20] is reported as 100 % of control and 106 % of control. For the same molecule, the T/C (dose: 100.0 mg/kg/injection, schedule: Q01DX009 (ip), vehicle: Klucel (hydroxypropylcellulose) (HPC)) was 100 % of control and 111 % of control.
O=C(Nc1cc(Cl)cc(Cl)c1)OC1CC2CC1C1CC3OC3C21 (stereo not drawn) was tested, and the T/C [10] was 94 % of control, the T/C [11] was 99 % of control and the T/C [12] was 92 % of control.
For Cc1cc2c(c3c1c(=O)c1ccccc1n3C)C=CC(C)(C)O2, the T/C (dose: 50.0 mg/kg/injection, schedule: Q01DX005 (ip), vehicle: saline with Tween-80) was 114 % of control, the T/C (dose: 100.0 mg/kg/injection, schedule: Q01DX005 (ip), vehicle: saline with Tween-80) was 108 % of control and the T/C (dose: 200.0 mg/kg/injection, schedule: Q01DX005 (ip), vehicle: saline with Tween-80) was 120 % of control. The T/C (dose: 300.0 mg/kg/injection, schedule: Q01DX005 (ip), vehicle: saline with Tween-80) was 120 % of control.
With COc1ccc(/C=N/Nc2nnc3c4ccccc4c4ccccc4c3n2)cc1 the T/C [21] was 89 % of control, the T/C (dose: 100.0 mg/kg/injection, schedule: Q04DX003 (ip), vehicle: saline) was 93 % of control and the T/C (dose: 200.0 mg/kg/injection, schedule: Q04DX003 (ip), vehicle: saline) was 92 % of control.
With COC(=O)CCSC(=O)NC1CCCCC1 the T/C [10] was 102 % of control, the T/C [11] was 107 % of control and the T/C [12] was 102 % of control.
C#CC1CC2C3CCC4=CC(=O)CCC4(C)C3CCC2(C)C1N(C)C (stereo not drawn) was tested, and the T/C (dose: 6.25 mg/kg/injection, schedule: Q01DX005 (ip), vehicle: Klucel (hydroxypropylcellulose) (HPC)) was 99 % of control, the T/C (dose: 12.5 mg/kg/injection, schedule: Q01DX005 (ip), vehicle: Klucel (hydroxypropylcellulose) (HPC)) was 102 % of control and the T/C [9] was 96 % of control.
In the case of COc1ccc(/C=C/C(=O)C(C)(C)CN(C)CCN(C)C)cc1, the T/C [13] is reported as 100 % of control and the T/C [14] is reported as 109 % of control.
With Cc1ccc(NC(=O)NNC(=O)CSC2CCc3ccccc32)c(C)c1 (stereo not drawn) the T/C [10] was 92 % of control, the T/C [11] was 92 % of control and the T/C [12] was 90 % of control.
For CCC(C)C(NC(=O)OC(C)(C)C)C(=O)NC(CCSC)C(N)=O (stereo not drawn) (Boc-Ile-Met-NH2; configuration not given here), the T/C [10] was 97 % of control, the T/C [11] was 95 % of control and the T/C [12] was 89 % of control.
For Cc1ccc(NC(=O)CCCCC(C)NCC(O)c2ccc(O)c(O)c2)cc1 (stereo not drawn), the T/C (dose: 100.0 mg/kg/injection, schedule: Q01DX001 (ip), vehicle: saline) was 97 % of control and the T/C (dose: 200.0 mg/kg/injection, schedule: Q01DX001 (ip), vehicle: saline) was 100 % of control.
For N#Cc1c(C#N)c(O)c2c(N)cccc2c1O, the T/C [16] was 105 % of control and the T/C [17] was 108 % of control.
With CNC1c2ccccc2CCC1O (stereo not drawn) the T/C [1] was 100 % of control and the T/C [2] was 96 % of control.
For NCc1ccccc1, the T/C [7] was 103 % of control and 95 % of control and the T/C [8] was 101 % of control and 109 % of control.
In the case of CC(=O)C(C)C(C)=NCCN=C(C)C(C)C(C)=O (stereo not drawn), the T/C [10] is reported as 110 % of control, the T/C [11] is reported as 110 % of control and the T/C [12] is reported as 103 % of control.
O=[N+]([O-])c1ccc(S(=O)/N=C/c2ccccc2)c([N+](=O)[O-])c1 (stereo not drawn) was tested, and the T/C [18] was 119 % of control and the T/C [19] was 118 % of control.
In the case of COC(=O)C1=C2c3cc4c(cc3CCN2C2(O)c3c(ccc(OC)c3OC)C(=O)C12C(=O)OC)OCO4 (stereo not drawn), the T/C (dose: 50.0 mg/kg/injection, schedule: Q04DX002 (ip), vehicle: saline with Tween-80) is reported as 96 % of control, the T/C [16] is reported as 103 % of control and the T/C [17] is reported as 96 % of control.
In the case of COc1ccc(C(Cl)c2ccc(OC)c(OC)c2)cc1OC, the T/C (dose: 25.0 mg/kg/injection, schedule: Q01DX009 (ip), vehicle: other) is reported as 100 % of control, the T/C (dose: 50.0 mg/kg/injection, schedule: Q01DX009 (ip), vehicle: other) is reported as 90 % of control and the T/C (dose: 100.0 mg/kg/injection, schedule: Q01DX009 (ip), vehicle: other) is reported as 97 % of control.
For CC1=C(C)C(=O)O[C@@H]([C@](C)(O)[C@]2(O)CC[C@@]3(O)[C@@H]4C[C@H]5O[C@]56CC=CC(=O)[C@]6(C)[C@H]4CC[C@]23C)C1, the T/C [18] was 109 % of control and 110 % of control, the T/C (dose: 12.5 mg/kg/injection, schedule: Q04DX003 (ip), vehicle: Klucel (hydroxypropylcellulose) (HPC)) was 122 % of control and the T/C [19] was 107 % of control and 124 % of control. The T/C [20] was 100 % of control and the T/C (dose: 50.0 mg/kg/injection, schedule: Q04DX003 (ip), vehicle: Klucel (hydroxypropylcellulose) (HPC)) was 124 % of control.
For COc1cccc2c1C(=O)c1c(O)c3c(c(O)c1C2=O)C[C@@](O)(C(C)=O)C[C@@H]3OC1CC(NC(=O)C(N)CC(C)C)C(O)C(C)O1 (stereo partly drawn), the T/C (dose: 3.12 mg/kg/injection, schedule: Q04DX003 (ip), vehicle: saline) was 109 % of control, the T/C (dose: 6.25 mg/kg/injection, schedule: Q04DX003 (ip), vehicle: saline) was 119 % of control and the T/C (dose: 25.0 mg/kg/injection, schedule: Q04DX003 (ip), vehicle: saline) was 163 % of control and 186 % of control. The T/C [21] was 163 % of control.
